Source: patent US20200261463A1, “TREATMENT OF CANCER USING ARYL DIHYDRO-2H-BENZO[B][1,4]OXAZINE SULFONAMIDE COMPOUNDS” (Lycera Corporation, priority 2017, published 2020)

Test system: bladder cancer
Assay: Administration of Compound A to human patient suffering from bladder cancer (CT imaging)
Assay type: in vivo
Conditions: 450 mg orally two times per day for two months

SMILES: CC(C)(C[C@H]1CN(S(=O)(=O)c2cccc(C(F)(F)F)c2)c2cc(-c3cc(F)cc(OC(F)F)c3)ccc2O1)C(=O)O [Compound A]
- reduction in bladder cancer burden compared to burden at start of treatment: 24%
